One may read the IC50 as the concentration needed to halve the response being measured. In general, CC50 refers to the concentration at which the toxic effect on the cells reaches its halfway point.

The record followed here is patent publication US20250009742A1 (priority 2021, published 2025).

The subject of one data set is intracellular HBV DNA. The data set can be described thus: Real-time PCR for intracellular HBV DNA in HepAD38 cells. As to conditions: Hepatitis B virus, HePAD38, 65 h, 65 hours treatment. The class given is cell-based. (In general: Real-time PCR tracks product formation cycle by cycle.)
A short description of data set [1]: Cell viability assay (EZ-Cytox), cytotoxicity. The class given is cell-based. As to conditions: human, HepAD38 cells; for viability at 65 h, 100 µM: read-out: Cytotoxicity % Livability (@100 μM). The procedure: HepAD38 cells were cultured for 2 days in Dulbecco's Modified Eagle's medium (Welgene, LM001-05) supplemented with 10% FBS without tetracycline. […] After 65 hours of treatment, viability was measured using EZ-Cytox cell viability assay kit (Daeil Lab Service) according to the manufacturer's instructions. The absorbance was measured at 450 nm using a spectrophotometer (Spark, Tecan).

Molecule `COC12CC(N(Cc3cc(C(F)(F)F)[nH]n3)C(=O)Nc3ccc(F)c(Cl)c3)(C1)C2` [Example 105, 3-(3-chloro-4-fluorophenyl)-1-(3-methoxybicyclo[1.1.1]pentan-1-yl)-1-((5-(trifluoromethyl)-1H-pyrazol-3-yl)methyl)urea] came in with an IC50 in the data set on intracellular HBV DNA of 34 nM. In addition, in data set [1], the CC50 at 65 h worked out at 55800 nM and the viability at 65 h, 100 µM amounted to 3.5%.
The like results for `CC(C)(O)c1cc(N(Cc2n[nH]c3c2CCCO3)C(=O)Nc2ccc(F)c(Cl)c2)on1` [Example 109, 3-(3-chloro-4-fluorophenyl)-1-(3-(2-hydroxypropan-2-yl)isoxazol-5-yl)-1-((1,4,5,6-tetrahydropyrano[2,3-c]pyrazol-3-yl)methyl)urea] were, in that order, 150 nM, greater than 100000 nM and 82%.
Consider `CC(C)(O)c1ccc(N(Cc2n[nH]c3c2CCCO3)C(=O)Nc2ccc(F)c(Cl)c2)cn1` [Example 110, 3-(3-chloro-4-fluorophenyl)-1-(6-(2-hydroxypropan-2-yl)pyridin-3-yl)-1-((1,4,5,6-tetrahydropyrano[2,3-c]pyrazol-3-yl)methyl)urea], for which the IC50 with intracellular HBV DNA is greater than 1100 nM. For the same molecule, in data set [1], the CC50 at 65 h is greater than 100000 nM.
Molecule `CC(C)(O)c1ccc(N(Cc2n[nH]c3c2CCOC3)C(=O)Nc2ccc(F)c(Cl)c2)cn1` [Example 111, 3-(3-chloro-4-fluorophenyl)-1-(6-(2-hydroxypropan-2-yl)pyridin-3-yl)-1-((1,4,5,7-tetrahydropyrano[3,4-c]pyrazol-3-yl)methyl)urea] yielded an IC50 with intracellular HBV DNA greater than 1100 nM. The molecule also yielded a CC50 at 65 h in data set [1] greater than 100000 nM.
`CC(C)(O)c1cc(N(Cc2n[nH]c3c2CCOC3)C(=O)Nc2ccc(F)c(Cl)c2)ccn1` [Example 112, 3-(3-chloro-4-fluorophenyl)-1-(2-(2-hydroxypropan-2-yl)pyridin-4-yl)-1-((1,4,5,7-tetrahydropyrano[3,4-c]pyrazol-3-yl)methyl)urea]: in the data set with intracellular HBV DNA, the IC50 was greater than 1100 nM. Moreover, the CC50 at 65 h in data set [1] is greater than 66000 nM.
Take `CC(C)(O)c1cc(N(Cc2n[nH]c3c2CCCO3)C(=O)Nc2ccc(F)c(Cl)c2)ccn1` [Example 113, 3-(3-chloro-4-fluorophenyl)-1-(2-(2-hydroxypropan-2-yl)pyridin-4-yl)-1-((1,4,5,6-tetrahydropyrano[2,3-c]pyrazol-3-yl)methyl)urea]: the IC50 with intracellular HBV DNA is greater than 1100 nM. Further, in data set [1], the CC50 at 65 h was greater than 100000 nM and the viability at 65 h, 100 µM turned out to be 102%.
In the data set with intracellular HBV DNA, `CC(C)(O)c1cc(N(Cc2n[nH]c3c2CCOC3)C(=O)Nc2ccc(F)c(Cl)c2)on1` [Example 115, 3-(3-chloro-4-fluorophenyl)-1-(3-(2-hydroxypropan-2-yl)isoxazol-5-yl)-1-((1,4,5,7-tetrahydropyrano[3,4-c]pyrazol-3-yl)methyl)urea] came in with an IC50 greater than 1100 nM. Moreover, in data set [1], the CC50 at 65 h was greater than 100000 nM and the viability at 65 h, 100 µM was determined as 84.1%.
Turning to `COc1cc(N(Cc2cc(C(F)(F)F)[nH]n2)C(=O)Nc2ccc(F)c(Cl)c2)cnc1C#N` [Example 118, 3-(3-chloro-4-fluorophenyl)-1-(6-cyano-5-methoxypyridin-3-yl)-1-((5-(trifluoromethyl)-1H-pyrazol-3-yl)methyl)urea], in the data set with intracellular HBV DNA, the IC50 was greater than 1100 nM. Moreover, in data set [1], the CC50 at 65 h was less than 50000 nM and the viability at 65 h, 100 µM came out at 31.3%.
The like results for `COc1ncc(N(Cc2cc(C(F)(F)F)[nH]n2)C(=O)Nc2ccc(F)c(Cl)c2)cc1C#N` [Example 119, 3-(3-chloro-4-fluorophenyl)-1-(5-cyano-6-methoxypyridin-3-yl)-1-((5-(trifluoromethyl)-1H-pyrazol-3-yl)methyl)urea] were, in that order, 320 nM, less than 50000 nM and 18.8%.
For `N#Cc1cncc(N(Cc2n[nH]c3c2CCCO3)C(=O)Nc2ccc(F)c(Cl)c2)c1` [Example 120, 3-(3-chloro-4-fluorophenyl)-1-(5-cyanopyridin-3-yl)-1-((1,4,5,6-tetrahydropyrano[2,3-c]pyrazol-3-yl)methyl)urea] the same measures were 95 nM, greater than 100000 nM and 92%.
